In US20220389010A1, “Novel Triazolopyridine Derivatives and Pharmaceutical Composition Comprising Same” (Daewoong Pharmaceutical Co., Ltd., priority 2019, published 2022):

Molecular target: T1, Recombinant purified human JAK3 (Homo sapiens, UniProt P52333)
T1 construct: purchased Promega V9441
T1 sequence (P52333 1-1124): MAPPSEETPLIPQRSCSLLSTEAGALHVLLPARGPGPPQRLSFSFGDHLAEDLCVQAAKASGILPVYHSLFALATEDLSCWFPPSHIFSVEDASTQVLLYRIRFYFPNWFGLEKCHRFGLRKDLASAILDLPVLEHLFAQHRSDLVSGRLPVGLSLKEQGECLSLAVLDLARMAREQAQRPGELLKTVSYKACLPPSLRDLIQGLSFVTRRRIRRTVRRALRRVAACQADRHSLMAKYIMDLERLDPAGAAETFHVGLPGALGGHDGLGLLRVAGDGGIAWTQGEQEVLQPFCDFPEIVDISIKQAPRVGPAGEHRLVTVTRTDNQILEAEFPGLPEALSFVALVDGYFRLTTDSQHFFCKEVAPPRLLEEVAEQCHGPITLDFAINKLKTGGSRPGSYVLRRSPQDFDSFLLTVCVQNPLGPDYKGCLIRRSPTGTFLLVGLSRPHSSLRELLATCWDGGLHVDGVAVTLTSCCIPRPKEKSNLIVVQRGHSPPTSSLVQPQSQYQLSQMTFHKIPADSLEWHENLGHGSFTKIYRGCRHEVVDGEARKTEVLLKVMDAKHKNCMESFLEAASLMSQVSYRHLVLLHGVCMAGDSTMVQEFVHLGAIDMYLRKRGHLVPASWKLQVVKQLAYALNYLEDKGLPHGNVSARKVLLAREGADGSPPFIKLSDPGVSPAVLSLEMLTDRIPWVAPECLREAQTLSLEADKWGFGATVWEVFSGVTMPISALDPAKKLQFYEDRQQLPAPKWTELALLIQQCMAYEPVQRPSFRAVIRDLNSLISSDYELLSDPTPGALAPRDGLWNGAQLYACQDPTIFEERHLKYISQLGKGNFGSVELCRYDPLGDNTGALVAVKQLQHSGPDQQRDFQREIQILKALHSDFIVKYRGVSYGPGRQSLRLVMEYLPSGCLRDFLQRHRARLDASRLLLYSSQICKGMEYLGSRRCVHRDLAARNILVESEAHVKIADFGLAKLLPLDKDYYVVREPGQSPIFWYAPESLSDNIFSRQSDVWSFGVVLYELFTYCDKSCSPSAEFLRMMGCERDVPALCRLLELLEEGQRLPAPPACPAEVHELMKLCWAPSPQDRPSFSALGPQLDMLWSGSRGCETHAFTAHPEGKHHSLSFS
Assay: JAK3 inhibitory activity test (ADP-Glo kinase assay)
Assay type: biochemical
Details: ATP 5 uM, 1 hour incubation at 30° C.
Experimental: The inhibitory activities against JAK3 were measured for the compounds prepared in the above Examples through in vitro analysis on the ADP Glow (Glo) platform.
Specifically, the inhibitory activities against JAK3 were measured using a JAK3 kinase assay kit (Promega, V9441), which was purchased from Promega. Recombinant purified human JAK3 was diluted with 1× kinase reaction buffer (JAK3: 40 mM Tris-CI, pH 7.5, 20 mM MgCl2, 0.1 mg/mL BSA and 50 uM OTT and added to a 96 well plate (JAK3: final concentration of 4 ng per reaction). The compounds prepared in the previous Examples were treated so as to be finally a 1% DMSO aqueous solution, and a substrate cocktail containing ATP (JAK3: final concentration of 5 uM) and 0.2 ug/ul of Poly(Glu4, Tyri) peptide (JAK3 final concentration) in the total 25 uL reactants was added to a 96-well plate to initiate enzymatic reaction. After incubation (30° C.) for 1 hour, equivalent volume (25 uL per reaction) of ADP Glo was added and incubated (30° C.) for 40 minutes at room temperature. Then, a kinase detection reagent (50 uL per reaction) was added and incubated (30° C.) for 30 minutes at room temperature. The kinase activity was measured by chemiluminescence according to the instructions of ADP Glo kinase assay kit, and the inhibitory activity of the compounds according to the present invention was calculated. For the analysis of the results of each compound, Microsoft Excel was used, and IC50 values were calculated by SigmaPlot software.

IC50 | SMILES
3.6 nM | C=CC(=O)Nc1cccc(Oc2cccc3nc(Nc4ccc(-n5nc(C)cc5C)cc4)nn23)c1 [Example 10, N-(3-(2-(4-(3,5-dimethyl-1H-pyrazol-1-yl)phenylamino)-[1,2,4]triazolo[1,5-a]pyridin-5-yloxy)phenyl)acrylamide]
1.2 nM | C=CC(=O)Nc1cccc(Oc2cccc3nc(Nc4cccc(-n5nnnc5C)c4)nn23)c1 [Example 7, N-(3-(2-(3-(5-methyl-1H-tetrazol-1-yl)phenylamino)-[1,2,4]triazolo[1,5-a]pyridin-5-yloxy)phenyl)acrylamide]
2.4 nM | C=CC(=O)Nc1cccc(Oc2cccc3nc(Nc4ccc5ncsc5c4)nn23)c1 [Example 3, N-(3-(2-(benzo[d]thiazol-6-ylamino)-[1,2,4]triazolo[1,5-a]pyridin-5-yloxy)phenyl)acrylamide]
> 400 nM | C=CC(=O)Nc1cccc(Oc2cccc3nc(Nc4nc5ccc(Cl)cc5s4)nn23)c1 [Example 22, N-(3-(2-(6-chlorobenzo[d]thiazol-2-ylamino)-[1,2,4]triazolo[1,5-a]pyridin-5-yloxy)phenyl)acrylamide]
